Melting point data for 31 compounds are collected here from US6465482B2, “Arylpiperazinyl-cyclohexyl indole derivatives for the treatment of depression” (Wyeth, priority 1999, dated 2002).

Counter-ions that a name gives are not always drawn.

For orientation: melting point means the temperature, or range, at which the solid turns liquid. Turning to `Fc1cccc2[nH]cc([C@H]3CC[C@@H](N4CCN(c5cccc6[nH]ccc56)CC4)CC3)c12` (as salt: HCl) (hydrate or solvate) [Example 2a, 4-Fluoro-3-[cis-4-[4-(1H-indol-4-yl)-1-piperazinyl]cyclohexyl]-1H-indole], the melting point lay in the range of 283 to 285 °C. Next, `Clc1ccc2[nH]cc([C@H]3CC[C@@H](N4CCN(c5cccc6[nH]ccc56)CC4)CC3)c2c1` (as salt: HCl) (hydrate or solvate) [Example 6a, 5-Chloro-3-[cis-4-[4-(1H-indol-4-yl)-1-piperazinyl]cyclohexyl]-1H-indole]: 283 to 285 °C; `Clc1ccc2[nH]cc([C@H]3CC[C@H](N4CCN(c5cccc6[nH]ccc56)CC4)CC3)c2c1` (as salt: HCl) (hydrate or solvate) [Example 6b, 5-Chloro-3-[trans-4-[4-(1H-indol-4-yl)-1-piperazinyl]cyclohexyl]-1H-indole]: 314 to 315.5 °C. Next, `COc1ccc2[nH]cc([C@H]3CC[C@@H](N4CCN(c5cccc6[nH]ccc56)CC4)CC3)c2c1` (as salt: HCl) (hydrate or solvate) [Example 8a, 5-Methoxy-3-[cis-4-[4-(1H-indol-4-yl)-1-piperazinyl]cyclohexyl]-1H-indole]: 283 to 285 °C.

`COc1ccc2[nH]cc([C@H]3CC[C@H](N4CCN(c5cccc6[nH]ccc56)CC4)CC3)c2c1` (as salt: HCl) (hydrate or solvate) [Example 8b, 5-Methoxy-3-[trans-4-[4-(1H-indol-4-yl)-1-piperazinyl]cyclohexyl]-1H-indole] yielded a melting point of 194 to 196 °C.

`Cn1ccc2c(N3CCN([C@H]4CC[C@@H](c5cn(C)c6cc(F)ccc65)CC4)CC3)cccc21` (as salt: HCl) (hydrate or solvate) [Example 11, 6-Fluoro-1-methyl-3-{cis-4-[4-(1-methyl-1H-indol-4-yl)-1-piperazinyl]cyclohexyl}-1H-indole] came in with a melting point of 253 to 254 °C. As to `Cn1cc([C@H]2CC[C@@H](N3CCN(c4cccc5[nH]ccc45)CC3)CC2)c2cc(C#N)ccc21` (as salt: HCl) (hydrate or solvate) [Example 12a, 3-{(1,4-cis)-4-[4-(1H-indol-4-yl)-piperazin-1-yl]-cyclohexyl}-1-methyl-1H-indole-5-carbonitrile], the melting point was 285.5 to 288 °C. `Cn1cc([C@H]2CC[C@H](N3CCN(c4cccc5[nH]ccc45)CC3)CC2)c2cc(C#N)ccc21` (as salt: HCl) (hydrate or solvate) [Example 12b, 3-{(1,4-trans)-4-[4-(1H-indol-4-yl)-piperazin-1-yl]-cyclohexyl}-1-methyl-1H-indole-5-carbonitrile]: the melting point was in the range of 286 to 288 °C. Under `CCn1cc([C@H]2CC[C@@H](N3CCN(c4cccc5[nH]ccc45)CC3)CC2)c2cc(C#N)ccc21` (as salt: HCl) (hydrate or solvate) [Example 13a, 1-Ethyl-3-{(1,4-cis)-4-[4-(1H-indol-4-yl)-piperazin-1-yl]-cyclohexyl}-1H-indole-5-carbonitrile] stands 245 °C. With `CCCn1cc([C@H]2CC[C@@H](N3CCN(c4cccc5[nH]ccc45)CC3)CC2)c2cc(C#N)ccc21` (as salt: HCl) (hydrate or solvate) [Example 14a, 3-{(1,4-cis)-4-[4-(1H-Indol-4-yl)-piperazin-1-yl]-cyclohexyl}-1-propyl-1H-indole-5-carbonitrile], the melting point lay in the range of 200 to 206 °C. Take `CC(C)n1cc([C@H]2CC[C@@H](N3CCN(c4cccc5[nH]ccc45)CC3)CC2)c2cc(C#N)ccc21` (as salt: HCl) (hydrate or solvate) [Example 15a, 3-{(1,4-cis)-4-[4-(1H-indol-4-yl)-piperazin-1-yl]-cyclohexyl}-1-isopropyl-1H-indole-5-carbonitrile]: the melting point fell in the range of 285 to 286 °C. Under `Cn1cc([C@H]2CC[C@@H](N3CCN(c4cccc5cccnc45)CC3)CC2)c2cc(F)ccc21` (as salt: HCl) (hydrate or solvate) [Example 28, 8-{4-(1,4-cis)-4-[4-(5-Fluoro-1-methyl-1H-indol-3-yl)-cyclohexyl]-piperazin-1-yl}-quinoline] stands 261 to 263.5 °C. Turning to `Fc1cc2c(c(N3CCN([C@H]4CC[C@H](c5c[nH]c6ccc(F)cc65)CC4)CC3)c1)OCCC2` (as salt: HCl) (hydrate or solvate) [Example 31b, 5-Fluoro-3-{(1,4-trans)-4-[4-(6-fluoro-chroman-8-yl)-piperazin-1-yl]-cyclohexyl}-1H-indole], the melting point was 286 to 288 °C. Take `Fc1cc2c(c(N3CCN([C@H]4CC[C@@H](c5c[nH]c6ccc(F)cc65)CC4)CC3)c1)OCC2` (as salt: HCl) (hydrate or solvate) [Example 32a, 5-Fluoro-3-{(1,4-cis)-4-[4-(5-fluoro-2,3-dihydro-benzofuran-7-yl)-piperazin-1-yl]-cyclohexyl}-1H-indole]: the melting point was 196 to 198 °C. Compound `Fc1cc2c(c(N3CCN([C@H]4CC[C@H](c5c[nH]c6ccc(F)cc65)CC4)CC3)c1)OCC2` (as salt: HCl) (hydrate or solvate) [Example 32b, 5-Fluoro-3-{(1,4-trans)-4-[4-(5-fluoro-2,3-dihydro-benzofuran-7-yl)-piperazin-1-yl]-cyclohexyl}-1H-indole] gave a melting point of 303 to 305 °C.

`N#Cc1ccc2[nH]cc([C@H]3CC[C@@H](N4CCN(c5cc(F)cc6c5OCC6)CC4)CC3)c2c1` (as salt: HCl) (hydrate or solvate) [Example 33a, 3-{(1,4-cis)-4-[4-(5-Fluoro-2,3-dihydro-benzofuran-7-yl)-piperazin-1-yl]-cyclohexyl}-1H-indole-5-carbonitrile] came in with a melting point of 298 to 301 °C. Next, `N#Cc1ccc2[nH]cc([C@H]3CC[C@H](N4CCN(c5cc(F)cc6c5OCC6)CC4)CC3)c2c1` (as salt: HCl) (hydrate or solvate) [Example 33b, 3-{(1,4-trans)-4-[4-(5-Fluoro-2,3-dihydro-benzofuran-7-yl)-piperazin-1-yl]-cyclohexyl}-1H-indole-5-carbonitrile]: 330 to 331 °C. With `N#Cc1ccc2[nH]cc([C@H]3CC[C@@H](N4CCN(c5cccc6ccoc56)CC4)CC3)c2c1` (as salt: HCl) (hydrate or solvate) [Example 34a], the melting point lay in the range of 295 to 296 °C. For `N#Cc1ccc2[nH]cc([C@H]3CC[C@H](N4CCN(c5cccc6ccoc56)CC4)CC3)c2c1` (as salt: HCl) (hydrate or solvate) [Example 34b], the melting point is 330 to 331 °C. `c1cc(N2CCN([C@H]3CC[C@@H](c4c[nH]c5ccccc54)CC3)CC2)c2cc[nH]c2c1` (as salt: HCl) [Example 1a, 3-[cis-4-[4-(1H-Indol-4-yl)-1-piperazinyl]cyclohexyl]-1H-indole]: the melting point is 198 to 200 °C. Under `c1cc(N2CCN([C@H]3CC[C@H](c4c[nH]c5ccccc54)CC3)CC2)c2cc[nH]c2c1` (as salt: HCl) [Example 1b, 3-[trans-4-[4-(1H-Indol-4-yl)-1-piperazinyl]cyclohexyl]-1H-indole] stands 305 °C (dec.); under `Fc1ccc2[nH]cc([C@H]3CC[C@@H](N4CCN(c5cccc6[nH]ccc56)CC4)CC3)c2c1` (as salt: HCl) [Example 3a, 5-Fluoro-3-[cis-4-[4-(1H-indol-4-yl)-1-piperazinyl]cyclohexyl]-1H-indole], 215 to 217 °C.

Turning to `Fc1ccc2[nH]cc([C@H]3CC[C@H](N4CCN(c5cccc6[nH]ccc56)CC4)CC3)c2c1` (as salt: HCl) [Example 3b, 5-Fluoro-3-[trans-4-[4-(1H-indol-4-yl)-1-piperazinyl]cyclohexyl]-1H-indole], the melting point was 280 °C (dec.). Turning to `Fc1ccc2c(c1)[nH]cc2[C@H]1CC[C@@H](N2CCN(c3cccc4[nH]ccc34)CC2)CC1` (as salt: HCl) [Example 4a, 6-Fluoro-3-[cis-4-[4-(1H-indol-4-yl)-1-piperazinyl]cyclohexyl]-1H-indole], the melting point was 250 to 252 °C (dec.). Under `Fc1ccc2c(c1)[nH]cc2[C@H]1CC[C@H](N2CCN(c3cccc4[nH]ccc34)CC2)CC1` (as salt: HCl) [Example 4b, 6-Fluoro-3-[trans-4-[4-(1H-indol-4-yl)-1-piperazinyl]cyclohexyl]-1H-indole] stands 319 to 320 °C (dec.); under `Brc1ccc2[nH]cc([C@H]3CC[C@@H](N4CCN(c5cccc6[nH]ccc56)CC4)CC3)c2c1` (as salt: HCl) [Example 5a, 5-Bromo-3-[cis-4-[4-(1H-indol-4-yl)-1-piperazinyl]cyclohexyl]-1H-indole], 276 °C; under `Brc1ccc2[nH]cc([C@H]3CC[C@H](N4CCN(c5cccc6[nH]ccc56)CC4)CC3)c2c1` (as salt: HCl) [Example 5b, 5-Bromo-3-[trans-4-[4-(1H-indol-4-yl)-1-piperazinyl]cyclohexyl]-1H-indole], > 300 °C.

Turning to `N#Cc1ccc2[nH]cc([C@H]3CC[C@@H](N4CCN(c5cccc6[nH]ccc56)CC4)CC3)c2c1` (as salt: HCl) [Example 7a, 3-{4-[(1,4-cis)-4-(1H-Indol-4-yl)-piperazinyl-1-yl]cyclohexyl}-1H-indole-5-carbonitrile], the melting point was in the range of 216 to 218 °C. For the compound `N#Cc1ccc2[nH]cc([C@H]3CC[C@H](N4CCN(c5cccc6[nH]ccc56)CC4)CC3)c2c1` (as salt: HCl) [Example 7b, 3-{4-[(1,4-trans)-4-(1H-Indol-4-yl)-piperazinyl-1-yl]cyclohexyl}-1H-indole-5-carbonitrile], the melting point is > 310 °C. Under `Cc1[nH]c2ccccc2c1[C@H]1CC[C@H](N2CCN(c3cccc4[nH]ccc34)CC2)CC1` (as salt: HCl) [Example 9b, 3-[trans-4-[4-(1H-Indol-4-yl)-1-piperazinyl]cyclohexyl]-2-methyl-1H-indole] stands > 310 °C; under `c1cc(N2CCN([C@H]3CC[C@@H](c4c[nH]c5ncccc54)CC3)CC2)c2cc[nH]c2c1` (as salt: HCl) [Example 10a, 3-{(1,4-cis)-4-[4-(1H-Indole-4-yl)-piperazin-1-yl]-cyclohexyl}-1H-pyrrolo[2,3-b]pyridine], > 250 °C (dec.).
